Reference: ChEMBL document CHEMBL1131533, “Development of a three-dimensional CysLT1 (LTD4) antagonist model with an incorporated amino acid residue from the receptor” (J Med Chem, 1998)

Target: T1, Cysteinyl leukotriene receptor 1 (Cavia porcellus, UniProt Q2NNR5)
T1 sequence (Q2NNR5 whole entry): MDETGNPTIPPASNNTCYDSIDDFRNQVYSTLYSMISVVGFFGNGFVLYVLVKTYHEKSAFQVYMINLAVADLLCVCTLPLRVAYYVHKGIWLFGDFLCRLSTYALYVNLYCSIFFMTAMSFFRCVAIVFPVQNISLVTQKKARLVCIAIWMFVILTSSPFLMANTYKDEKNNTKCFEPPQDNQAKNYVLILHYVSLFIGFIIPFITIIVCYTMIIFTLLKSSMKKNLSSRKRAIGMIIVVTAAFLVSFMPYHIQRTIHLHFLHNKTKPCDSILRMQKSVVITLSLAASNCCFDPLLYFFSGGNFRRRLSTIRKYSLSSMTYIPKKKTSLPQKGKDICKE
Test: Binding affinity towards Cysteinyl leukotriene D4 receptor (cysLT1) was measured by the displacement of [3H]LTD4 radioligand

CCC(CC)(CC(=O)Nc1cccc(/C=C/c2nc(C3CCC3)cs2)c1)C(=O)O
Ki: 6.4 nM

O=c1cc(-c2nnn[nH]2)oc2cc(/C=C/c3cccc(OCc4ccc5ccccc5n4)c3)ccc12
Ki: 2.5 nM

O=C(O)c1cccc2c(=O)cc(-c3cccc(/C=C/c4ccc5ccccc5n4)c3)oc12
IC50: 17 nM

O=C(Nc1cccc2c(=O)cc(-c3nn[nH]n3)oc12)c1ccc(OCc2ccc3ccccc3n2)cc1
Ki: 1.1 nM

O=c1cc(-c2nnn[nH]2)oc2cc(OCc3cccc(OCc4ccc5ccccc5n4)c3)ccc12
Ki: 3 nM
